Results reported in PMC11575396, “Activity and cryo-EM structure of the polymerase domain of the human norovirus ProPol precursor” (Journal of Virology, 2024).
Structures can show the parent of a compound that is named as a salt. Where two headings read alike, the source gives them in different places. Marks after values point to notes of the source that are not given here.

Tests used:
GII Pol [1] = target: T1, GII Pol (Norovirus Hu/GII.4/Sydney/NSW0514/2012/AU, UniProt K4L8Z7); assay: Steady-state kinetics of de novo polymerase activity (PicoGreen); type: biochemical, Human norovirus GII.4 Sydney 2012; conditions: (95% CI)
Description: (§1) De novo polymerase activity was measured by monitoring the formation of dsRNA from a single-stranded homopolymeric RNA template using PicoGreen as described previously ([69]). Optimal pH (range of 7.0–8.0), concentrations of MnCl2 (2.5 mM), and DTT (5 mM) for HuNV were previously established ([17], [52]). Concentrations of NaCl in the final polymerase reaction were maintained below 10 mM ([17]).
(§2) Standard reactions were performed in 25 µL, containing 5 mM DTT, 2.5 mM MnCl2, 20 ng/µL RNA template, 0.5 mM NTP in 20 mM Tris pH 7.5. Reactions were initiated with the indicated concentration of enzyme and allowed to proceed for a set period at 37°C before being terminated with 10 mM EDTA. PicoGreen (1:350 dilution) (Invitrogen, Waltham, MA, USA) was added to bind the dsRNA, and fluorescence was measured on a Varioskan Flash (Thermo Fisher Scientific, Waltham, MA, USA) plate reader with excitation at 480 nm and emission at 520 nm.
(§3) Kinetics of nucleotide incorporation by polymerase proteins was analyzed by titrating NTP concentration under standard reaction conditions for the linear time period of the enzyme. Kinetics of RNA template utilization was analyzed in the same manner but with titration of the homopolymeric template. The velocity of the reaction against substrate concentration was plotted, and the kinetic parameters were determined by non-linear regression using the Michaelis-Menten model in GraphPad Prism version 9.2.0 (La Jolla, CA, USA). All enzyme kinetics was performed with three independent preparations of protein, with triplicate wells for each replicate.

GII ProPol [2] = target: T2, GII ProPol (Norovirus Hu/GII.4/Sydney/NSW0514/2012/AU, UniProt K4L8Z7, E1189A); assay: as above; type: biochemical, Human norovirus GII.4 Sydney 2012
GII ProPol [3] = target: T2, GII ProPol; assay: as above; type: biochemical, Human norovirus GII.4 Sydney 2012; conditions: (95% CI)
Description: as §1, §2, §3

norovirus Pro = tested on: norovirus Pro; parameters: method as in PMID 32321856, PMID 38005879; conditions: read-out: IC50 protease activity; cited from earlier work
GII Pol [4] = target: T1, GII Pol; assay: biochemical; conditions: for IC50: read-out: IC50 polymerase activity
GI Pol [5] = target: T3, GI Pol (Southampton virus, UniProt Q04544); assay: De novo polymerase inhibition assay (PicoGreen dsRNA formation); type: biochemical
GII ProPol [6] = target: T2, GII ProPol; assay: biochemical; parameters: species or system Human norovirus GII.4 Sydney 2012
GII Pol [7] = tested on: GII Pol; parameters: method as in PMID 24316032, PMID 31804593, PMID 30584800; conditions: read-out: IC50 polymerase; cited from earlier work
GI ProPol [8] = target: T4, GI ProPol (Southampton virus, UniProt Q04544, E1280A); assay: De novo polymerase inhibition assay (PicoGreen dsRNA formation); type: biochemical, Human norovirus GI Southampton
GII Pro = assay: FRET protease assay; type: biochemical, Human norovirus GII.4 Sydney 2012; conditions: normalized to 0-µM inhibitor control
Text: (§4) A fluorescent resonance energy transfer assay was used to measure the activities of Pro and ProPol as described in reference ([46]). The peptide substrate, 5(6)-carboxyfluorescein (FAM)-[…]-Dabcyl utilized in reactions, was based on the NS1-2/NS3 cleavage site of HuNV GII.4 Sydney 2012, and the scissile bond is shown in bold.

GII ProPol [9] = target: T2, GII ProPol; assay: FRET protease assay; type: biochemical, Human norovirus GII.4 Sydney 2012
Text: as §4

GI Pol [10] = target: T3, GI Pol; assay: Steady-state kinetics of de novo polymerase activity (PicoGreen); type: biochemical, Human norovirus GI Southampton; conditions: GI Pol 75 nM, (95% CI)
Description: as §1, §2, §3

GI ProPol [11] = target: T4, GI ProPol; assay: as above; type: biochemical, Human norovirus GI Southampton; conditions: GI ProPol 250 nM, (95% CI)
Description: as §1, §2, §3

[12] = GII ProPol 1 µM, ATP 0 to 2000 µM, 80 ng/µL poly(U), (95% CI)
[13] = GII Pol 2 µM, poly(U) 0 to 160 ng/µL, 0.5 mM ATP, 20 min
[14] = 0, 3 and 30 µM, poly(C) template
[15] = GII ProPol 2 µM, poly(A) 0 to 400 ng/µL, 0.5 mM UTP, 60 min
[16] = GII Pol 35 nM, poly(C) 0 to 80 ng/µL, 0.5 mM GTP
[17] = GII ProPol 35 nM, poly(C) 0 to 80 ng/µL, 0.5 mM GTP
[18] = poly(C) 0 to 80 ng/µL, 0.5 mM GTP
[19] = GTP 0 to 1,000 µM, 20 ng/µL poly(C)

Nc1ncnc2c1ncn2[C@@H]1O[C@H](COP(=O)(O)OP(=O)(O)OP(=O)(O)O)[C@@H](O)[C@H]1O [ATP]
kcat ATP (GII Pol [1]; GII Pol 2 µM, ATP 0 to 2000 µM, 80 ng/µL poly(U)): 0.3 (0.2–0.33) s^−1 | Km (GII Pol [1]; GII Pol 2 µM, ATP 0 to 2000 µM, 80 ng/µL poly(U), read-out: Km ATP): 416 µM | Km (GII ProPol [2]; [12]): 484 µM | kcat ATP (GII ProPol [2]; [12]): 0.6 (0.5–0.7) s^−1

poly(U)
Km poly(U) (GII Pol [1]; [13]): 29.6 (19.7–45.0) ng/μL | kcat poly(U) (GII Pol [1]; [13]): 1.4 (1.2–1.7) s^−1 | kcat poly(U) (GII ProPol [3]; GII ProPol 1 µM, poly(U) 0 to 160 ng/µL, 0.5 mM ATP, 20 min): 1.9 (1.6–2.2) s^−1 | Km poly(U) (GII ProPol [3]; GII ProPol 1 µM, poly(U) 0 to 160 ng/µL, 0.5 mM ATP, 20 min, Michaelis-Menten): 7.9 (4.7–13.2)^a ng/μL | Km as estimated by half Vmax (GII ProPol [2]; GII ProPol with poly(U), allosteric sigmoidal model): 6.8 ng/µL

O=C[C@H](C[C@@H]1CCNC1=O)NC(=O)[C@H](CC1CCCCC1)NC(=O)c1cc2ccccc2[nH]1 [NV-004]
IC50 (norovirus Pro): 0.37 µM | polymerase activity in the presence of inhibitor (GII Pol [4]; [14]): no decrease in polymerase activity | polymerase activity in the presence of inhibitor (GI Pol [5]; [14]): no decrease in polymerase activity | remaining activity at 30 µM (GII ProPol [6]; read-out: polymerase activity compared with 0-µM control): 76%

Cc1nc(/N=N/c2cc(S(=O)(=O)O)c3cc([N+](=O)[O-])cc(S(=O)(=O)O)c3c2)c(COP(=O)(O)O)c(C=O)c1O [PPNDS, pyridoxal‐5′‐phosphate‐6‐(2′‐naphthylazo‐6′‐nitro‐4′,8′‐disulfonate) tetrasodium salt]
IC50 (GII Pol [7]): 0.45 to 1.5 µM | IC50 (GII Pol [4]): 0.5 µM | IC50 (GI ProPol [8]): 6.8 µM | IC50 (GI Pol [5]; GI Pol 75 nM, 6 ng/µL poly(C) template, 150 µM GTP): 3.4 µM | IC50 (GII ProPol [6]): 3.8 µM

O=C(Nc1cccc(C(=O)Nc2ccc(S(=O)(=O)O)c3cc(S(=O)(=O)O)cc(S(=O)(=O)O)c23)c1)Nc1cccc(C(=O)Nc2ccc(S(=O)(=O)O)c3cc(S(=O)(=O)O)cc(S(=O)(=O)O)c23)c1 [NF023, 8,8′-[carbonylbis(imino-3,1-phenylenecarbonylimino)]bis-1,3,5-naphthalene-trisulphonic acid]
protease activity in the presence of inhibitor (GII Pro): not affected

poly(A)
Km poly(A) (GII ProPol [3]; [15]): 23.6 (19.0–29.3)^a ng/μL | kcat poly(A) (GII ProPol [3]; [15]): 0.42 (0.39–0.45) s^−1

Nc1ncnc2c([C@@H]3N[C@H](COP(=O)(O)OP(=O)(O)OP(=O)(O)O)[C@@H](O)[C@H]3O)c[nH]c12 [Gal-TP, galidesivir triphosphate]
protease activity in the presence of inhibitor (GII Pro): did not affect protease activity to a level of significance | protease activity in the presence of inhibitor (GII ProPol [9]; 30 µM inhibitor): observable decrease in ProPol activity | protease activity in the presence of inhibitor (GII ProPol [9]; normalized to 0-µM inhibitor control): did not affect protease activity to a level of significance | IC50 (GII Pol [4]; GII Pol 2 µM, 8 ng/µL poly(U) template, 400 µM ATP): 154 µM | IC50 (GII ProPol [6]): 247 µM | fold difference between the IC50 values (GII ProPol vs GII Pol) (GII ProPol [6]; poly(U) template): 1.6 fold

poly(C)
Km poly(C) (GII Pol [1]; [16]): 8.8 (6.9–11.3) ng/μL | kcat poly(C) (GII Pol [1]; [16]): 1.4 (1.3–1.5) s^−1 | Km poly(C) (GII ProPol [3]; [17]): 5.9 (4.7–7.3) ng/μL | kcat poly(C) (GII ProPol [3]; [17]): 1.1 (1.0–1.2) s^−1 | Km poly(C) (GI Pol [10]; [18]): 6.5 (5.2–8.0) ng/μL | kcat poly(C) (GI Pol [10]; [18]): 1.4 (1.3–1.6) s^−1 | Km poly(C) (GI ProPol [11]; poly(C) 0 to 80 ng/µL, 0.5 mM GTP, 10 min 37°C): 15.6 (12.0–20.2)^a ng/μL | kcat poly(C) (GI ProPol [11]; [18]): 0.4 (0.35–0.42) s^−1

Nc1nc2c(ncn2[C@@H]2O[C@H](COP(=O)(O)OP(=O)(O)OP(=O)(O)O)[C@@H](O)[C@H]2O)c(=O)[nH]1 [GTP]
kcat GTP (GII Pol [1]; GII Pol 35 nM, GTP 0 to 500 µM, 20 ng/µL poly(C)): 1.6 (1.40–1.96) s^−1 | Km (GII Pol [1]; GII Pol 35 nM, GTP 0 to 500 µM, 20 ng/µL poly(C), read-out: Km GTP): 80.3 µM | kcat GTP (GII ProPol [3]; GII ProPol 35 nM, GTP 0 to 500 µM, 20 ng/µL poly(C)): 0.78 (0.69–0.87) s^−1 | Km (GII ProPol [3]; GII ProPol 35 nM, GTP 0 to 500 µM, 20 ng/µL poly(C), read-out: Km GTP): 25.3 µM | Km (GI Pol [10]; [19]): 150 µM | kcat GTP (GI Pol [10]; [19]): 1.7 (1.47–1.96) s^−1 | Km (GI ProPol [11]; [19]): 91.5 µM | kcat GTP (GI ProPol [11]; [19]): 0.24 s⁻¹

O=c1ccn([C@@H]2O[C@H](COP(=O)(O)OP(=O)(O)OP(=O)(O)O)[C@@H](O)[C@H]2O)c(=O)[nH]1 [UTP]
kcat UTP (GII ProPol [3]; GII ProPol 2 µM, nucleotide 0 to 2000 µM, 20 ng/µL poly(A), 60 min): 0.36 (0.32–0.41) s^−1 | Km (GII ProPol [3]; GII ProPol 2 µM, nucleotide 0 to 2000 µM, 20 ng/µL poly(A), 60 min, read-out: Km UTP): 438 µM
